The values that follow come from patent US20070142362A1, “4,5-Dihydro-(1H)-pyrazole derivatives as cannabinoid CB1 receptor modulators” (SOLVAY PHARMACEUTICALS B.V., priority 2005, published 2007).

One series deals with T1, human CB1 receptor (Homo sapiens, UniProt P21554).
T1 construct: expressed in transfected cells; host or cells: CHO cells
The series can be described thus: In vitro cannabinoid-CB1 receptor (ant)agonism: [3H]-arachidonic acid release in CHO cells. It is filed as cell-based. Particulars: CHO cells with human CB1 receptor, read-out: Human CB1 Arachidonic acid release (CB1) pEC50 (converted). On the procedure: In Vitro Cannabinoid-CB1Receptor (Ant)Agonism
In vitro CB1 receptor antagonism/agonism can be assessed with the human CB1 receptor cloned in Chinese hamster ovary (CHO) cells. CHO cells are grown in a Dulbecco's Modified Eagle's medium (DMEM) culture medium, supplemented with 10% heat-inactivated fetal calf serum. Medium is aspirated and replaced by DMEM, without fetal calf serum, but containing [^3H]-arachidonic acid and incubated overnight in a cell culture stove (5% CO2/95% air; 37° C.; water-saturated atmosphere). During this period [^3H]-arachidonic acid is incorporated in membrane phospholipids. On the test day, medium is aspirated and cells are washed three times using 0.5 ml DMEM, containing 0.2% bovine serum albumin (BSA). CB1 agonist stimulation leads to activation of PLA2 followed by release of [^3H]-arachidonic acid into the medium. This CB1 agonist-induced release is concentration-dependently antagonized by CB1 receptor antagonists, such as for example rimonabant.

In series [1] the target is T2, human cannabinoid CB1 receptor (Homo sapiens, UniProt P21554).
T2 construct: expressed in transfected cells; host or cells: CHO cells, stably transfected; membrane preparation
T2 sequence (P21554 whole entry): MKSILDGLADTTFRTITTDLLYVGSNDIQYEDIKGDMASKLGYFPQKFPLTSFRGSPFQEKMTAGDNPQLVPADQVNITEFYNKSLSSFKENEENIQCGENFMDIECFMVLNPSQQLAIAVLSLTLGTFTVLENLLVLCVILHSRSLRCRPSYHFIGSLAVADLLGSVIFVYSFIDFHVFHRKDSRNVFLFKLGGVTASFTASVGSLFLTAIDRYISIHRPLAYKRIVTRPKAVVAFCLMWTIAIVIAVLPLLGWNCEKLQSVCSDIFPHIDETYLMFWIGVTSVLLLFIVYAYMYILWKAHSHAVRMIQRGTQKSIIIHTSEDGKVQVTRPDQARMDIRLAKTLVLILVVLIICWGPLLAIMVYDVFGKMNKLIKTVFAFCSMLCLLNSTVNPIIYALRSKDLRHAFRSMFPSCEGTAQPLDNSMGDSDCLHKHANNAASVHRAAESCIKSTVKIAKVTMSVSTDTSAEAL
Kind of series: In vitro affinity for cannabinoid-CB1 receptors ([3H]CP-55,940 radioligand binding, CHO cell membranes). Particulars: mean of at least three independent experiments, read-out: Human CB1 receptor binding pKi (converted). On the procedure: In Vitro Affinity for Cannabinoid-CB1 Receptors
The affinity of the compounds of the invention for cannabinoid CB1 receptors can be determined using membrane preparations of Chinese hamster ovary (CHO) cells in which the human cannabinoid CB1 receptor is stably transfected in conjunction with [^3H]CP-55,940 as radioligand. After incubation of a freshly prepared cell membrane preparation with the [^3H]-ligand, with or without addition of compounds of the invention, separation of bound and free ligand is performed by filtration over glassfiber filters. Radioactivity on the filter is measured by liquid scintillation counting.

For series [2], the target named is T3, human cannabinoid CB2 receptor (Homo sapiens, UniProt P34972).
T3 construct: expressed in transfected cells; host or cells: CHO cells, stably transfected; membrane preparation
T3 sequence (P34972 whole entry): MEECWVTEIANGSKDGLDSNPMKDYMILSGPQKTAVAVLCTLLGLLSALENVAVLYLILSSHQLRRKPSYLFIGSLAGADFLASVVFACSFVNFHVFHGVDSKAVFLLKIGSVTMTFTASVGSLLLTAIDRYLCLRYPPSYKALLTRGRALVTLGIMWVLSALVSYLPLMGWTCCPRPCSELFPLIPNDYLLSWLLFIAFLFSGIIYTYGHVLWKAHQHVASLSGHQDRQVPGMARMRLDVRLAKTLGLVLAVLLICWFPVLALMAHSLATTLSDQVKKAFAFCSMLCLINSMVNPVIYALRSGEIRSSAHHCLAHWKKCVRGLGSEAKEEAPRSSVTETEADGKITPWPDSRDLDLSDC
Kind of series: In vitro affinity for cannabinoid-CB2 receptors ([3H]CP-55,940 radioligand binding, CHO cell membranes). Particulars: mean of at least three independent experiments, read-out: Human CB2 receptor binding pK1 (converted). On the procedure: In Vitro Affinity for Cannabinoid-CB2 Receptors
The affinity of the compounds of the invention for cannabinoid CB2 receptors can be determined using membrane preparations of Chinese hamster ovary (CHO) cells in which the human cannabinoid CB2 receptor is stably transfected in conjunction with [^3H]CP-55,940 as radioligand. After incubation of a freshly prepared cell membrane preparation with the [^3H]-ligand, with or without addition of compounds of the invention, separation of bound and free ligand is performed by filtration over glassfiber filters. Radioactivity on the filter is measured by liquid scintillation counting.

Another series addresses T4, human CB2 receptor (Homo sapiens, UniProt P34972).
T4 construct: host or cells: CHO K1 cells
The series can be described thus: In vitro cannabinoid-CB2 receptor (ant)agonism: forskolin-stimulated cAMP accumulation (adenylate cyclase activity) in CHO K1 cells. Conditions: for EC50: agonism, 3x10^-7 M forskolin, read-out: Human CB2 CB2-mediated adenylate cyclase activity pEC50 (converted). It is filed as cell-based. On the procedure: In Vitro Cannabinoid-CB2 Receptor (Ant)Agonism
Functional activity at the cannabinoid CB2 receptor was assessed using a forskolin-stimulated cAMP accumulation assay. The ability of compounds to stimulate and inhibit adenylate cyclase activity was assessed in Chinese ovarian hamster (CHO) K1 cells expressing human CB2 (Euroscreen, Brussel) receptor. CHO cells were grown in a CHO—S—SFM-II culture medium, supplemented with 10% heat-inactivated foetal calf serum, 2 mM glutamine, 400 μg/ml Hygromycine B and 500 μg/ml G418 at 37° C. in 93% air/5% CO2. For incubation with test compounds, confluent cultures grown in 24 well plates were used. Each condition or substance was routinely tested in quadruplicate. Cells were loaded with 1 mCi [^3H]-adenine in 0.5 ml medium per well. After 2 hours, cultures were washed with 0.5 ml PBS containing 1 mM IBMX and incubated for 20 minutes with 0.5 ml PBS containing 1 mM IBMX and 3×10^−7 M forskolin with or without the test compound. Antagonistic effects of test compounds were determined as inhibition of 0.1 μM JWH-133-decreased [^3H]cAMP formation. After aspiration the reaction was stopped with 1 ml trichloroacetic acid (5% w/v). The [3H]-ATP and [^3H]-cAMP formed in the cellular extract were assayed as follows: a volume of 0.8 ml of the extract was passed over Dowex (50WX-4200-400 mesh) and aluminum oxide columns, eluted with water and 0.1 M imidazole (pH=7.5). Eluates were mixed with 7 ml Ultima-Flo [AP] and the β-radioactivity was counted with a liquid scintillation counter. The conversion of [^3H]-ATP into [^3H]-cAMP was expressed as the ratio in percentage radioactivity in the cAMP fraction as compared to the combined radioactivity in both cAMP and ATP fractions, and basal activity was subtracted to correct for spontaneous activity. […] Compounds were studied in a concentration range of 10^−10 M to 10^−6M. pEC50 and the pA2 were calculated according to Cheng-Prusoff equation (Cheng and Prusoff, 1973). […]

Molecules are shown by their SMILES.

T4 sequence (P34972 whole entry): as above
T1 sequence (P21554 whole entry): as the sequence (P21554 whole entry) above

Turning to `CCCCCC1=NN(C(=O)N[C@H]2C[C@H]3CC[C@]2(C)C3(C)C)CC1c1ccccc1` (stereo partly drawn) [Compound 97, N-Endo-[(1R,2S,4R)-1,7,7-trimethylbicyclo[2.2.1]hept-2-yl]-3-(n-pentyl)-4-phenyl-4,5-dihydro-(1H)-pyrazole-1-carboxamide], the EC50 on human CB1 receptor was < 1 nM. Moreover, the Ki in series [1] and in series [2] was 5.01 nM throughout. The “Human CB2 CB2-mediated adenylate cyclase activity pA2” value at human CB2 receptor (antagonism of 0.1 μM JWH-133-decreased [3H]cAMP formation) turned out to be 9.2.

Turning to `CCCCCC1=NN(C(=O)NC2CCCCCC2)CC1c1ccccc1` (centres unmarked) [Compound 109, N-cycloheptyl-3-(n-pentyl)-4-phenyl-4,5-dihydro-(1H)-pyrazole-1-carboxamide], the Ki was 6.31 nM in series [1] and 25.1 nM in series [2].

As usually defined, the melting point is the temperature of the solid-liquid transition. The molecule `CCCCCC1=NN(C(=O)NC2C3CC4CC(C3)CC2C4)CC1c1ccccc1` (centres unmarked) registered a melting point of 71 °C.

As to `CCCCC1=NN(C(=O)NC[C@@H]2CC[C@H]3C[C@@H]2C3(C)C)CC1c1ccccc1` (relative stereo) [Compound 7, N-[(1R,2S,5R)-rel-6,6-dimethylbicyclo[3.1.1]heptan-2-methyl]-3-(n-butyl)-4-phenyl-4,5-dihydro-(1H)-pyrazole-1-carboxamide], the EC50 on human CB1 receptor is 631 nM. The Ki is 39.8 nM in series [1] and 10 nM in series [2].

In the case of `CCCCCC1=NN(C(=O)N[C@H]2C[C@H]3CC[C@]2(C)C3(C)C)CC1c1ccccc1` (stereo partly drawn) [Compound 13, N-[Endo-(1R,2S,4R)-1,7,7-trimethylbicyclo[2.2.1]hept-2-yl]-3-(n-pentyl)-4-phenyl-4,5-dihydro-(1H)-pyrazole-1-carboxamide], the EC50 on human CB1 receptor was 0.501 nM. In addition, the Ki in series [1] and in series [2] was 7.94 nM each time.

Consider `CC1(C)[C@@H]2CC[C@@]1(C)[C@@H](NC(=O)N1CC(c3ccccc3)C(CC3CC3)=N1)C2` (stereo partly drawn) [Compound 54, N-[Endo-(1R,2S,4R)-1,7,7-trimethylbicyclo[2.2.1]hept-2-yl]-3-(cyclopropylmethyl)-4-phenyl-4,5-dihydro-(1H)-pyrazole-1-carboxamide], for which the EC50 on human CB1 receptor was 251 nM. For the same molecule, the values for the Ki in series [1] and in series [2] were 25.1 nM and 39.8 nM, respectively.

Regarding `CCCCCC1=NN(C(=O)NCC23CC4CC(CC(C4)C2)C3)CC1c1ccccc1` (centres unmarked) [Compound 11, N-(1-Adamantyl)methyl-3-(n-pentyl)-4-phenyl-4,5-dihydro-(1H)-pyrazole-1-carboxamide], the EC50 on human CB1 receptor is 2000 nM. In addition, the Ki in series [1] is 15.8 nM; in series [2], 7.94 nM.

As to `CCCCCC1=NN(C(=O)NCC2CCCCC2)CC1c1ccccc1` (centres unmarked) [Compound 12, N-(Cyclohexylmethyl)-3-(n-pentyl)-4-phenyl-4,5-dihydro-(1H)-pyrazole-1-carboxamide], the figures for the Ki in series [1] and in series [2] were 15.8 nM and 50.1 nM, respectively.

In the case of `CCCCCC1=NN(C(=O)NC[C@@H]2CC[C@H]3C[C@@H]2C3(C)C)CC1c1ccccc1` (relative stereo) [Compound 1, N-[(1R,2S,5R)-rel-6,6-dimethylbicyclo[3.1.1]heptan-2-methyl]-3-(n-pentyl)-4-phenyl-4,5-dihydro-(1H)-pyrazole-1-carboxamide], the EC50 on human CB1 receptor is 2000 nM. In addition, the values for the Ki in series [1] and in series [2] were 3.98 nM and 12.6 nM, respectively.

For the molecule `CCCCC1=NN(C(=O)NC(C)(C)Cc2ccccc2)CC1c1ccccc1F` (centres unmarked) [Compound 40, N-(2-phenyl-1,1-dimethyl-ethyl)-3-(n-butyl)-4-(2-fluorophenyl)-4,5-dihydro-(1H)-pyrazole-1-carboxamide], the Ki in series [1] is 1580 nM; in series [2], 158 nM. The EC50 at human CB2 receptor was 7.94 nM.

`O=C(Nc1ccccc1)N1CC(c2ccc(Cl)cc2)C(Cc2ccc(Cl)cc2)=N1` (centres unmarked) [Compound 41, N-Phenyl-3-(4-chlorobenzyl)-4-(4-chlorophenyl)-4,5-dihydro-(1H)-pyrazole-1-carboxamide] returned a melting point of 156 °C. For the same molecule, in series [1], the Ki is 316 nM. In addition, in series [2], the Ki is 200 nM.

`CCCCC1=NN(C(=O)NC(C)(C)Cc2ccccc2)CC1c1cccc(F)c1` (centres unmarked) [Compound 39, N-(2-phenyl-1,1-dimethyl-ethyl)-3-(n-butyl)-4-(3-fluorophenyl)-4,5-dihydro-(1H)-pyrazole-1-carboxamide]: the figures for the Ki in series [1] and in series [2] were 3980 nM and 126 nM, respectively. For the same molecule, the EC50 on human CB2 receptor is 7.94 nM.

`COc1ccc(NC(=O)N2CC(c3ccc(Cl)cc3)C(Cc3ccc(Cl)cc3)=N2)cc1` (centres unmarked) gave a melting point of 116 to 119 °C.

On to `CCCCCC1=NN(C(=O)Nc2cccc3ccccc23)CC1c1ccccc1` (centres unmarked) [Compound 18, N-(1-Naphtyl)-3-(n-pentyl)-4-phenyl-4,5-dihydro-(1H)-pyrazole-1-carboxamide], for which the Ki in series [1] is 6.31 nM; in series [2], 31.6 nM.

As to `CCCCCC1=NN(C(=O)c2cccc3ccccc23)CC1c1ccccc1` (centres unmarked) [Compound 87, 1-(1-Naphtoyl)-3-(n-pentyl)-4-phenyl-4,5-dihydro-(1H)-pyrazole], on human CB1 receptor, the EC50 was 15.8 nM. Also, the Ki in series [1] is 79.4 nM; in series [2] it was 100 nM.

Take `CCCCCC1=NN(S(=O)(=O)NC[C@@H]2CC[C@H]3C[C@@H]2C3(C)C)CC1c1ccccc1` (relative stereo) [Compound 130, N-[(1R,2S,5R)-rel-6,6-dimethylbicyclo[3.1.1]heptan-2-methyl]-3-(n-pentyl)-4-phenyl-4,5-dihydro-(1H)-pyrazole-1-sulfonamide]: the Ki in series [1] is 316 nM; in series [2], 126 nM.
